Source: US5073571A, “Method of inhibiting virus” (priority 1989, dated 1991)

Assays:
MoMLV = MoMLV replication: LZ1 virus titer by histochemical staining of NIH 3T3 cells for β-galactosidase; type: cell-based, Maloney murine leukemia virus
Source text: Panel A -Schematic representation of the MoMLV assay system. […] This cell produces infectious, replication defective virus (designated (LZ1) which carries the LacZ gene. When NIH3T3 cells are exposed to supernatant taken from the LZ1 virus producing cells, they are initially infected and their progeny are detectable by histochemical staining for β-galactosidase. Thus, the titer of the virus produced by the LZ1 cells after treatment with the various agents, can be readily determined by counting the number of blue NIH3T3 cells. Replication competent MoMLV is not detected using this assay system since the lacZ gene product is not present. Panel B - The effect of 6-oxamyristic acid and 13-oxamyristic acid on LZ1 virus production. The results represent the mean (+1 standard deviation) of three independent tests each done in duplicate. Panel C - Number of viable LZ1 producing cells at the end of a 2 day treatment with analog as measured by trypan blue exclusion. The results of duplicate assays were averaged. Panel D - The effects of analog treatment on incorporation of [^3 H]leucine. Cells in duplicate wells were pulse labeled for 4 h following three days of incubation with analog or ethanol (0.1%). Duplicate assays were performed. The results were averaged and expressed as a percentage of the results obtained from untreated cells.
Assay of the Effects of Analogs on the Replication of Maloney Murine Leukemia Virus. The LZ1 titer assay was developed for rapid histochemical quantitation of infectious virus production. In brief, the LZ1 virus-producing cell line was derived by Sanes et al., EMBO J. 5, 3133-3142 (1986), from the .PSI.-2 cell line. .PSI.-2-cells are NIH 3T3 cells that contain a stably integrated packaging mutant (pMOV-.PSI.-) of MoMLV. This mutant has a deletion of 350 nucleotides between the 5' donor splice site for env and the initiator methionine codon for Pr65^gag [Mann et al., Cell 33, 153-159 (1983)]. The LZ1 cell line is a subclone of .PSI.-2 cells that were co-transfectd with pM-MuLV-SV-LacZ [Sanes et al., supra.]and pSVTK neoB and then selected for G418 (Geneticin®) antibiotic resistance and production of defective MoMLV containing the E. coli β-galactosidase gene [Sanes et al., supra.]. The recombinant virus produced by LZ1 cells is capable of primary infection of NIH 3T3 cells but is replication defective [Sanes et al., surpa.]. Infected NIH 3T3 containing the lac-Z gene can be identified by histochemical staining for β-galactosidase activity.
To assess the effects of analog treatment on MoMLV replication, 1 × 10^5 LZ1 producing cells were added to each well of a 24-well tissue culture plate in 1 mL of Dulbecco's Modified Eagle's medium (DME) containing calf serum (final concentration =10%), penicillin (100 IU/mL), streptomycin (100 μg/mL) with or without analog (10-100 μM). After 24 h, the media was removed and fresh serum-containing media ±analog was added. The next day (48 hours after plating), the virus containing supernatant was removed and passed through a 0.2 μm filter. Various size aliquots (25-100 μL of the 1 mL filtrate) were added to 1 × 10^4 NIH 3T3 cells contained in 1 mL of DME/10% calf serum/penicillin/streptomycin. These indicator cells had been plated 24 h earlier in 24 well tissue culture plates. Polybrene (Sigma) was added at the same time as the filtrate so that its final concentration was 10 μg/mL. […]

HIV-1 [1] = experiment: HIV-1 replication in H9 cells, reverse transcriptase activity of culture supernatants (acute infection); type: cell-based, HIV-1 strain HXB2gptX (in human H9 cells); settings: for effect on reverse transcriptase activity: 1-10 μM, 10 day incubation, HIV-1 infected H9 cells; for activity at 100 µM: Human immunodeficiency virus 1, H9, 240 h, read-out: reverse transcriptase (RT) activity
Procedure: (§1) Media was changed every other day. The effect of these compounds on virus production was determined by measuring the reverse transcriptase (RT) activity in samples of the cell culture supernatants. […] Negative controls consisted of no additions or 0.1ethanol. The results of duplicate assays were averaged. Panel B -Concentration-dependent effects of 13-oxamyristic acid on HIV-1 replication as measured by RT activity (percent of untreated control) and the presence of p24 antigen (ng/ml determined by ELISA). Error bars indicate the S.E.M. of assays done in triplicate. Panel C - The effect of 13-oxamyristic acid on syncytia formation using an arbitrary scale described under Materials and Methods, Example 16, below. Panel D - Toxicity of 13-oxamyristic acid determined by viable cell count (trypan blue exclusion), as well as by [^3 H]thymidine and [^3 H]leucine labeling (see under Materials and Methods, Example 16, below). The incorporation of these radiolabeled compounds was determined in the total cell population contained in a well after 10 days of treatment with the analog. Duplicate assays were performed and the results averaged.
Assay for HIV-1 Replication. The human T-lymphoid cell line, H9, was provided by R. D. Gallo (NIH) and maintained in RPMI-1640 medium supplemented with 10% fetal bovine serum, 100 IU/mL penicillin, 100 μg/mL streptomycin an 2 mM L-glutamine. HIV-1 strain HXB2gptX [Fisher et al., Science 233, 655-659 (1986)] was obtained from cultures of chronically infected H9 cells [Popovic et al., Science 224, 497-500 (1984)]< filtered through 0.2 μm Millipore filters and stored at -90° C. The titer of the virus stock was determined by serial dilution using syncytia formation and reverse transcriptase activity (see below) as a measure of infectivity in H9 cells.
Cell-free HIV-1, at a multiplicity of infection (m.o.i.) equal to 0.01-0.001, was added to 10^7 H9 cells which had been pretreated with 2 μg/ml Polybrene® (hexadimethrene bromide, Sigma). Following a 30 min incubation at 37° C. to absorb the virus, 4 × 10^5 of virus treated cells in 1 mL of fresh medium (plus 10% fetal calf serum, pencillin and streptomycin) were added to each well of a 24 well tissue culture plate (Falcon), and mixed with an equal volume of serum-free RPMI-1640 medium containing analog. Medium containing 5% serum, antibiotics ± analog was replaced every other day. Each of the heteroatom substituted analogs was prepared as a 100 mM stock solution in 100% ethanol and stored at -90° C. prior to dilution in the serum-free RPMI-1640 medium. The maximum final ethanol concentration reached after dilution of the different analogs in media was 0.1%. Therefore, uninfected and infected H9 cells, treated with or without 0.1% ethanol, were used as controls for each test. Ethanol alone had no demonstrable effects.
Except for the preliminary screening of the various (coded) analogs which was done twice, all other assays were performed at least three times. Samples were tested in duplicate each time the assay was repeated.
Virus Assays. Virus was quantitated using supernatant solutions of cells harvested on day 8 (m.o.i.=0.01) or day 10 (m.o.i.=0.001) of treatment. Virions were concentrated 10 fold by precipitation of culture supernatants with a solution of polyethylene glycol (30% in 150 mM NaCl, 0.1 mM phenylmethylsulfonylfluoride). The precipitates were solubilized and virus-associated reverse transcriptase (RT) activity measured by [^32 P]TTP incorporation using a poly(rA)-oligo(dT) template [Poiesz et al., Proc. Natl. Acad. Sci. USA 77, 7415-7419 (1980)]. Cell supernatants were also tested for virus-specific antigen using a p24 ELISA from Dupont (Wilmington, DE). This assay can detect as little as 0.03 ng of antigen/mL (antigen=p24, the major structural nucleocapsid protein of HIV-1, as well as its precursor, Pr55^gag).
HIV-1 Replication in H9 Cells is Inhibited by Treatment with Heteroatom-Containing Analogs of Myristate. […]

[2] = tested on: myristoyl CoA: protein N-myristoyl transferase (NMT); experiment: Ability to act as substrate for NMT; type: biochemical
Source text: Purification and use of this enzyme are described, for example, by Towler et al., Proc. Natl. Acad. Sci. USA 84, 2708-2712 (1987); J. Biol. Chem. 262, 1030-1036 (1987).

Hydrophobicity = type: physicochemical; settings: thioether moiety introduced into the fatty acid chain
AIDS virus (HIV) = settings: cited from earlier work
virus = experiment: Antiviral effectiveness compared with C13-C14 analogs; settings: C16 saturated fatty acid analog
HIV-1 [3] = experiment: Syncytia assay in HIV-1 infected H9 cells; type: cell-based, HIV-1 strain HXB2gptX (in human H9 cells); settings: compared to infected, untreated H9 controls
Procedure: as §1
Assay for HIV-1 Replication. The human T-lymphoid cell line, H9, was provided by R. D. Gallo (NIH) and maintained in RPMI-1640 medium supplemented with 10% fetal bovine serum, 100 IU/mL penicillin, 100 μg/mL streptomycin an 2 mM L-glutamine. […] The titer of the virus stock was determined by serial dilution using syncytia formation and reverse transcriptase activity (see below) as a measure of infectivity in H9 cells. […]
Syncytia Assay. The number of syncytia in each well was determined by microscopic examination on days 4-6 (infected, untreated control cultures), 8 and 10 (analog or decanoate treated cultures). The average number of multi-nucleated giant cells counted per 10 low-power fields (LPF =40 times magnification) was assigned to an arbitrary syncytia scale: 0=<1/LPF, 1+=1-4/LPF, 2+=5-7/LPF, 3+= 8-10/LPF, 4+=>10/LPF. By this criteria uninfected, control cells had zero synctia, and infected, untreated H9 cells were consistently scored as 4+.

For `CCCCCCCCOCCCCC(=O)O` [6-oxamyristate, 5-(octyloxy)pentanoic acid], the inhibition at 100 µM (MoMLV; Murine leukemia virus, NIH3T3, 48 h, read-out: average reduction in virus titers (MoMLV)) was > 60%, the inhibition at 10 µM (MoMLV; Murine leukemia virus, NIH3T3, 48 h, read-out: reduction in MoMLV replication (virus titer)) was 40% and the “effect on MoMLV replication” value (MoMLV; up to 100 μM, 2 day treatment of LZ1 cells) was “inhibits MoMLV replication in a concentration dependent fashion”. For the same molecule, the “effect on reverse transcriptase activity” value (HIV-1 [1]) was “No reduction in reverse transcriptase activity”, the “relative efficacy on HIV-1 production” value (HIV-1 [1]; 1-100 μM, H9 cells, ranking among the four analogs) was “least effective” and the “effect on HIV-1 production / replication” value (HIV-1 [1]; H9 cells) was “no effect on HIV-1 replication”. It also gave an activity at 100 µM (HIV-1 [1]) of 20%.

In the case of `CCCOCCCCCCCCCC(=O)O` [11oxamyristate, 10-(Propoxy)decanoic acid], the “effect on reverse transcriptase activity” value (HIV-1 [1]) is reported as “More pronounced effects”.

With `CCSCCCCCCCCCCC(=O)O` [12thiamyristate, 11-(Ethylthio)undecanoic acid] the “effect on reverse transcriptase activity” value (HIV-1 [1]) was “More pronounced effects”, the “ability to act as a substrate for NMT” value [2] was “leaves intact its ability to act as a substrate” and the hydrophobicity (Hydrophobicity) was “decreases its hydrophobicity”.

In the case of `Cc1cn([C@H]2C[C@H](N=[N+]=[N-])[C@@H](CO)O2)c(=O)[nH]c1=O` [AZT, 3'-azido-3'-deoxythymidine, reference compound], the inhibition at 5 µM (HIV-1 [1]; Human immunodeficiency virus 1, H9, read-out: inhibition of viral replication in the H9 acute assay) is listed as > 90% and the “inhibition of replication of the virus in vitro” value (AIDS virus (HIV)) is listed as “shown to inhibit replicaton of the virus in vitro”.

In the case of `CCCCOCCCCCCCCCCC(=O)O` [Compound I, 11-(1-butoxy)undecanoic acid], the “effectiveness versus analogs based on C13-C14 fatty acids” value (virus) is reported as “less effective than the analogs based on C13 -C14 fatty acids”.

For `CCCCCCCCCC(=O)O` [decanoic acid, reference compound], the “reduction of MoMLV titers compared to untreated controls” value (MoMLV; 10-100 μM, 2 day treatment of LZ1 cells) was “no significant reductions”, the activity at 100 µM (HIV-1 [1]) was 80% and the “effect on number of syncytia” value (HIV-1 [3]) was “no effect on the number of synctia”.
